The assay concerns the target PI3Kα E545K (Homo sapiens, UniProt P42336, E545K). Put plainly: PI3Kα E545K mutant in vitro cell based assay, MCF-7 cells. As to conditions: MCF-7 cell line, 0% FBS, 3 hours treatment. Summed up: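 MCF-7 cells (PI3Kα E545K) in serum-free MEM with 1 μg/mL insulin were treated 3 h with 10-point 1:3 dilutions in 0.3% DMSO. Lysates were read by SureFire AlphaLisa. IC50 was fitted by 4-parameter logistic to % inhibition relative to DMSO (max) and 1 μM GDC-0032 (min), duplicates averaged.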

PI3Kα E545K, sequence (P42336 whole entry E545K): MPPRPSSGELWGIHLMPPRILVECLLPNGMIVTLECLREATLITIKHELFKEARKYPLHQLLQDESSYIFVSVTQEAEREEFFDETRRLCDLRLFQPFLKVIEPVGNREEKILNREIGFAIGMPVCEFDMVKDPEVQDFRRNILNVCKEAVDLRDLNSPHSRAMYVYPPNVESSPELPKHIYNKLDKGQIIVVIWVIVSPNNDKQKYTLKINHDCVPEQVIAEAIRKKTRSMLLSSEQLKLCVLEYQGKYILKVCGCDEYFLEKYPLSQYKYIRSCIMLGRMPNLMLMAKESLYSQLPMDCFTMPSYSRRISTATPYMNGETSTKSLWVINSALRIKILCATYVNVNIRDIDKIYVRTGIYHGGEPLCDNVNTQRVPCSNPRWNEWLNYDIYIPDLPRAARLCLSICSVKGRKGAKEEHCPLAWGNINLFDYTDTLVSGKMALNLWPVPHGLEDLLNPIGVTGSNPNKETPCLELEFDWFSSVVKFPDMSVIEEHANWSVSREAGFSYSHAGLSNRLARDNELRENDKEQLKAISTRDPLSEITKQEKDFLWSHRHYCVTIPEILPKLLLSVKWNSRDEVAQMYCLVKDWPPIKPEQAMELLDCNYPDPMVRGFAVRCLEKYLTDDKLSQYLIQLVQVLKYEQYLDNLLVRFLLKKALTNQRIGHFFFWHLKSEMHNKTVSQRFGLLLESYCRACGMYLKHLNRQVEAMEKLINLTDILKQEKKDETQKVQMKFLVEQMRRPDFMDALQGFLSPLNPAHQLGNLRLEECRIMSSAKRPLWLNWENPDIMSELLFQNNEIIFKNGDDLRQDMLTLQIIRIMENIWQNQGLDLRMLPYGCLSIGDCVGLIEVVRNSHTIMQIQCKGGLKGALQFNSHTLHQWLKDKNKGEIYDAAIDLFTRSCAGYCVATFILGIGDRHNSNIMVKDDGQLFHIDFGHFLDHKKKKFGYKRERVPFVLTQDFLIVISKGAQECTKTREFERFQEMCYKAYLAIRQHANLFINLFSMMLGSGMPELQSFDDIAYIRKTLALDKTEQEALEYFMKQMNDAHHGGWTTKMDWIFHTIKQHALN
PI3Kα E545K, sequence (P27986 whole entry partner): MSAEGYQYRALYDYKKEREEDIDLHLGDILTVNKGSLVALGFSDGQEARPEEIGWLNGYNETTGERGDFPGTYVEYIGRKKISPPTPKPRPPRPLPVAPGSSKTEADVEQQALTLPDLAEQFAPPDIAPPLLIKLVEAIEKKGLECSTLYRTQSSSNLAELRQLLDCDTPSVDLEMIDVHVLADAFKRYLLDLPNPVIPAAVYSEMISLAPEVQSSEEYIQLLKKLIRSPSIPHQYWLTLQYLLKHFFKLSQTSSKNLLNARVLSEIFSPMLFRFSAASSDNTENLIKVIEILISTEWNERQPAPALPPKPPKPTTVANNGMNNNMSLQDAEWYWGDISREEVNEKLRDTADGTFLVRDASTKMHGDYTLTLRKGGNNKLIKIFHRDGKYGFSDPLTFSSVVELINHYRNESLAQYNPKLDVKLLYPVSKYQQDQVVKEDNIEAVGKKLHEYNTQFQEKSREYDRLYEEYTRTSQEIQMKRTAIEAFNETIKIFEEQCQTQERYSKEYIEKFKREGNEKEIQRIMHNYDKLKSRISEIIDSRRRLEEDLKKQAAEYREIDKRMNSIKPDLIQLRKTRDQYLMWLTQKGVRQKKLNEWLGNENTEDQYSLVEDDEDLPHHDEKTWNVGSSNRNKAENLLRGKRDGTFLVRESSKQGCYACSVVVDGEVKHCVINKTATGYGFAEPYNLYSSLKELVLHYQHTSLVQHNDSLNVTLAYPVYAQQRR

Regarding `Cc1cc([C@@H](C)Oc2ccc(Cl)nc2-c2noc(=O)[nH]2)c2oc(-c3ccc4c(c3)OC(F)(F)O4)c(C)c(=O)c2c1` [Example 46A, 3-[6-Chloro-3-[(1R)-1-[2-(2,2-difluoro-1,3-benzodioxol-5-yl)-3,6-dimethyl-4-oxo-chromen-8-yl]ethoxy]-2-pyridyl]-4H-1,2,4-oxadiazol-5-one], the IC50 is < 500 nM.

For `Cc1cc([C@@H](C)Oc2ccc(Cl)nc2NS(C)(=O)=O)c2oc(-c3cnn(C)c3)c(C)c(=O)c2c1` [Example 149A, N-[6-Chloro-3-[(1R)-1-[3,6-dimethyl-2-(1-methylpyrazol-4-yl)-4-oxo-chromen-8-yl]ethoxy]-2-pyridyl]methanesulfonamide], the IC50 is < 500 nM.

One may read the IC50 as the midpoint of a concentration-inhibition curve.

The values above are taken from patent publication US20240182460A1, “ALLOSTERIC CHROMENONE INHIBITORS OF PHOSPHOINOSITIDE 3-KINASE (PI3K) FOR THE TREATMENT OF DISEASE” (PETRA PHARMA CORPORATION, priority 2022, published 2024).
